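96-well plates; 48 h exposure; 5 concentrations. Endpoints by linear interpolation between flanking doses. Not reached: highest tested concentration assigned. TGI is the concentration that stops growth completely.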
Key:
Assay in all cases: DTP human tumour cell line panel, 48 h
HS 578T breast = tested on: HS 578T breast
NCI-H226 lung = tested on: NCI-H226 lung
HCC-2998 colon = tested on: HCC-2998 colon
RXF 393 renal = tested on: RXF 393 renal
MDA-N = tested on: MDA-N
UACC-62 melanoma = tested on: UACC-62 melanoma
MOLT-4 leukemia = tested on: MOLT-4 leukemia
UO-31 renal = tested on: UO-31 renal
SK-MEL-5 melanoma = tested on: SK-MEL-5 melanoma
CCRF-CEM leukemia = tested on: CCRF-CEM leukemia
SF-539 CNS = tested on: SF-539 CNS
SNB-75 CNS = tested on: SNB-75 CNS
IGROV1 ovarian = tested on: IGROV1 ovarian
U251 CNS = tested on: U251 CNS
DU-145 prostate = tested on: DU-145 prostate
NCI-H460 lung = tested on: NCI-H460 lung
SN12C renal = tested on: SN12C renal
HL-60(TB) leukemia = tested on: HL-60(TB) leukemia
SR leukemia = tested on: SR leukemia

Structure (SMILES)	TGI (HS 578T breast)	TGI (NCI-H226 lung)	TGI (HCC-2998 colon)	TGI (RXF 393 renal)	TGI (MDA-N)	TGI (UACC-62 melanoma)	TGI (MOLT-4 leukemia)	TGI (UO-31 renal)	TGI (SK-MEL-5 melanoma)	TGI (CCRF-CEM leukemia)	TGI (SF-539 CNS)	TGI (SNB-75 CNS)	TGI (IGROV1 ovarian)	TGI (U251 CNS)	TGI (DU-145 prostate)	TGI (NCI-H460 lung)	TGI (SN12C renal)	TGI (HL-60(TB) leukemia)	TGI (SR leukemia)
CC(C)(C)OC(=O)CC(NC(=O)OC(C)(C)C)C(=O)NC(C(=O)O)C(O)c1ccccc1 (stereo not drawn)	> 100 µM	> 100 µM	> 100 µM	> 100 µM	> 100 µM	> 100 µM	> 100 µM	> 100 µM	> 100 µM	> 100 µM	> 100 µM	> 100 µM	> 100 µM	> 100 µM	> 100 µM	> 100 µM	–	–	–
COc1cc([C@@H]2c3cc4c(cc3[C@@H](OC3OC5COC(C)OC5C(OC(=O)CN5CCN(C)CC5)C3OC(=O)CN3CCN(C)CC3)C3COC(=O)[C@@H]32)OCO4)cc(OC)c1OC(=O)CN1CCN(C)CC1 (stereo partly drawn)	> 100 µM	> 100 µM	> 100 µM	> 100 µM	> 100 µM	> 100 µM	42.1 µM	> 100 µM	> 100 µM	46.6 µM	73.4 µM	84.9 µM	> 100 µM	> 100 µM	> 100 µM	> 100 µM	> 100 µM	42.6 µM	–
NC(=O)CCC(CCC(N)=O)(CCC(N)=O)[N+](=O)[O-]	> 100 µM	> 100 µM	–	> 100 µM	> 100 µM	> 100 µM	> 100 µM	> 100 µM	> 100 µM	–	> 100 µM	> 100 µM	> 100 µM	> 100 µM	> 100 µM	> 100 µM	> 100 µM	> 100 µM	–
N#Cc1cc(N(CCCl)CCCl)c([N+](=O)[O-])cc1[N+](=O)[O-]	> 100 µM	–	–	–	> 100 µM	> 100 µM	> 100 µM	> 100 µM	> 100 µM	98.2 µM	> 100 µM	–	> 100 µM	> 100 µM	> 100 µM	> 100 µM	> 100 µM	80.9 µM	35.8 µM
CCOC(=O)c1nnsc1NN=C(C)C	> 100 µM	> 100 µM	> 100 µM	> 100 µM	> 100 µM	> 100 µM	> 100 µM	> 100 µM	> 100 µM	–	> 100 µM	> 100 µM	> 100 µM	> 100 µM	> 100 µM	> 100 µM	> 100 µM	> 100 µM	–
CC(C)n1c(=O)[nH]n(-c2ccccc2)c1=O	> 100 µM	> 100 µM	–	> 100 µM	> 100 µM	> 100 µM	> 100 µM	> 100 µM	> 100 µM	> 100 µM	> 100 µM	> 100 µM	> 100 µM	> 100 µM	> 100 µM	> 100 µM	> 100 µM	> 100 µM	> 100 µM
Cn1c(=O)n2c(-c3ccccc3)c(-c3ccccc3)n2c1=O	> 100 µM	> 100 µM	> 100 µM	> 100 µM	> 100 µM	> 100 µM	> 100 µM	> 100 µM	> 100 µM	> 100 µM	> 100 µM	> 100 µM	> 100 µM	> 100 µM	–	> 100 µM	> 100 µM	> 100 µM	> 100 µM
CCOC(=O)c1c[nH]cc1-c1cn(S(=O)(=O)c2ccccc2)cc1C	46.2 µM	–	41 µM	> 100 µM	48.4 µM	33.6 µM	> 100 µM	> 100 µM	> 10 µM	> 100 µM	53.5 µM	63.1 µM	77.7 µM	85.4 µM	> 100 µM	47.3 µM	59.6 µM	> 100 µM	–
OCCCc1cc(O)c2c(c1)C(CO)C(c1ccc(O)c(O)c1)O2 (stereo not drawn)	> 100 µM	> 100 µM	> 100 µM	–	> 100 µM	> 100 µM	> 100 µM	> 100 µM	> 100 µM	> 100 µM	> 100 µM	–	> 100 µM	> 100 µM	> 100 µM	> 100 µM	> 100 µM	> 100 µM	> 100 µM
COC(=O)c1ccc(COC(=O)N2C=CCC2C(=O)O)cc1 (stereo not drawn)	> 100 µM	> 100 µM	> 100 µM	> 100 µM	> 100 µM	> 100 µM	> 100 µM	> 100 µM	> 100 µM	–	> 100 µM	> 100 µM	> 100 µM	> 100 µM	> 100 µM	> 100 µM	> 100 µM	–	> 100 µM
COC(=O)Cc1c(/C=C/C(C)(C)n2cnc(CCN3C(=O)CCC3=O)c2)[nH]c2ccccc12	89.3 µM	> 100 µM	–	> 100 µM	> 100 µM	> 100 µM	> 100 µM	> 100 µM	> 100 µM	> 100 µM	> 100 µM	> 100 µM	> 100 µM	> 100 µM	> 100 µM	> 100 µM	> 100 µM	> 100 µM	> 100 µM
Cc1cn([C@H]2C[C@@H]3[C@@H](COC(CCl)N3O)O2)c(=O)[nH]c1=O (stereo partly drawn)	> 100 µM	> 100 µM	–	> 100 µM	> 100 µM	> 100 µM	> 100 µM	> 100 µM	> 100 µM	> 100 µM	> 100 µM	> 100 µM	> 100 µM	> 100 µM	> 100 µM	> 100 µM	> 100 µM	> 100 µM	> 100 µM
CC1OC(OC2C(CO)OC(O[C@H]3CC[C@@]4(C)C(=CC[C@H]5[C@@H]6C[C@@H]7O[C@](O)(CC[C@H](CO)COC8OC(CO)C(O)C(O)C8O)[C@@H](C)[C@@H]7[C@@]6(C)CC[C@@H]54)C3)C(OC3OC(C)C(O)C(O)C3O)C2O)C(O)C(O)C1O (stereo partly drawn)	> 100 µM	–	> 100 µM	> 100 µM	> 100 µM	> 100 µM	> 100 µM	> 100 µM	> 100 µM	> 100 µM	> 100 µM	> 100 µM	> 100 µM	> 100 µM	> 100 µM	> 100 µM	> 100 µM	–	> 100 µM
Cc1coc2c1C(=O)C(=O)c1c-2ccc2c1CCCC2(C)C	> 31.4 µM	11.2 µM	21.7 µM	> 100 µM	2.8 µM	3.32 µM	> 100 µM	14.2 µM	1.19 µM	> 100 µM	7.59 µM	16.3 µM	29.7 µM	> 100 µM	9.9 µM	10.4 µM	> 30.1 µM	–	7.03 µM
COC(=O)C(Cc1c(C2Nc3ccccc3C2CC(NC(C)=O)C(=O)OC)[nH]c2ccccc12)NC(C)=O (stereo not drawn)	> 100 µM	> 100 µM	–	> 100 µM	> 100 µM	> 100 µM	> 100 µM	> 100 µM	> 100 µM	> 100 µM	> 100 µM	> 100 µM	> 100 µM	> 100 µM	> 100 µM	> 100 µM	> 100 µM	> 100 µM	–
CCC(CCN)(CCN)[N+](=O)[O-]	> 100 µM	–	–	> 100 µM	> 100 µM	> 100 µM	> 100 µM	–	> 100 µM	–	> 100 µM	> 100 µM	> 100 µM	> 100 µM	> 100 µM	> 100 µM	> 100 µM	> 100 µM	> 100 µM
CC1(C)CCCCCCC2CC2CCCCCC(C)(C)C1=O (stereo not drawn)	> 100 µM	> 100 µM	–	> 100 µM	> 100 µM	> 100 µM	> 100 µM	> 100 µM	> 100 µM	39.4 µM	> 100 µM	> 100 µM	> 100 µM	> 100 µM	> 100 µM	> 100 µM	> 100 µM	32.7 µM	20.7 µM
C/C(=N\Nc1nc2ccccc2s1)c1cnccn1	20 µM	1.38 µM	31.9 µM	40.7 µM	> 100 µM	> 60.6 µM	–	23.6 µM	16 µM	> 100 µM	36.7 µM	> 31.3 µM	7.28 µM	> 100 µM	> 100 µM	15 µM	> 80.8 µM	–	> 100 µM
CC(C)(C)C1(O)C=C(O)C(=O)N1NC(=O)c1ccccc1Nc1ccccc1 (stereo not drawn)	> 100 µM	> 100 µM	62.9 µM	> 100 µM	> 100 µM	63 µM	29 µM	> 100 µM	> 100 µM	57.6 µM	> 100 µM	> 100 µM	> 100 µM	> 100 µM	> 100 µM	> 100 µM	> 100 µM	7.25 µM	–
CC(=O)C1=C(C)N2C(=NC3=C(CCc4ccccc43)C2c2cccc(Br)c2)S1 (stereo not drawn)	> 100 µM	> 100 µM	> 100 µM	> 100 µM	> 100 µM	> 100 µM	–	> 100 µM	> 100 µM	> 100 µM	> 100 µM	> 100 µM	> 100 µM	> 100 µM	> 100 µM	–	> 100 µM	> 100 µM	–
C[C@]12CC[C@H]3[C@@H](CCC4=CC(=O)CC[C@@]43C)[C@@H]1CC[C@@H]2C(=O)Nc1ccc([N+](=O)[O-])c(C(F)(F)F)c1	38.4 µM	39 µM	26.4 µM	–	> 10 µM	31.9 µM	70.8 µM	32.8 µM	32.5 µM	71.3 µM	33.5 µM	–	43.7 µM	31.5 µM	42.3 µM	33.4 µM	41 µM	> 100 µM	87.4 µM
NCCCCN(CCCN)Cc1ccc2ccccc2c1	42.9 µM	> 100 µM	27.3 µM	> 100 µM	51.7 µM	> 100 µM	> 100 µM	71 µM	> 100 µM	> 100 µM	> 100 µM	22.8 µM	> 100 µM	> 100 µM	> 100 µM	55.2 µM	46.3 µM	> 100 µM	–
CCC12CC(c3ccccc3)C(C(=O)N1)C(=O)N2 (stereo not drawn)	> 100 µM	> 100 µM	–	> 100 µM	> 100 µM	> 100 µM	> 100 µM	> 100 µM	> 100 µM	> 100 µM	> 100 µM	> 100 µM	> 100 µM	> 100 µM	> 100 µM	> 100 µM	> 100 µM	> 100 µM	> 100 µM
CCC1c2[nH]c3ccccc3c2C[C@H]2C(=O)NC(CCCCNC(=O)OC(C)(C)C)C(=O)N12 (stereo partly drawn)	76.2 µM	> 100 µM	–	> 100 µM	54.9 µM	49.2 µM	43.5 µM	> 100 µM	38.8 µM	–	–	58.2 µM	> 100 µM	> 100 µM	> 100 µM	> 100 µM	> 100 µM	59.6 µM	92.8 µM
O=[N+]([O-])C(=C(N1CCCCC1)N1CCCCC1)/C(Cl)=C(\Cl)[N+](=O)[O-]	11.6 µM	45.7 µM	55.6 µM	2.94 µM	13.3 µM	29.2 µM	–	8.11 µM	11 µM	> 31.3 µM	25.8 µM	32.9 µM	3.29 µM	46 µM	7.72 µM	59.9 µM	4.8 µM	–	> 100 µM
CO/N=C(\C(=O)Nc1cncs1)c1csc(N)n1	> 10 µM	–	> 10 µM	–	> 10 µM	> 10 µM	> 10 µM	> 10 µM	> 10 µM	> 10 µM	> 10 µM	> 10 µM	> 10 µM	> 10 µM	> 10 µM	> 10 µM	> 10 µM	–	> 10 µM
